Reference: patent US20240279233A1, “MACROCYCLIC TAK1 INHIBITORS” (Aqilion AB, priority 2021, published 2024)
Where two headings read alike, the source gives them in different places.

Target: human recombinant TAK1-TAB1 Kinase (TAK1 (1-303) and TAB1 (437-end)) (Homo sapiens (Human), UniProt O43318)
Test: TAK1 biochemical ADP-Glo kinase assay
Settings: MBP substrate
Protocol: The usefulness of the example compounds of the invention as TAK1 inhibitors was evaluated in a biochemical ADP-Glo kinase assay. Assay kits from Promega Corporation V4089 were used according to manufacturer's instructions and adapted as outlined here. ADP-Glo Kinase Assay kit contains ADP-Glo Reagent, Kinase Detection Reagent, kinase detection buffer, ATP, and ADP. The Kinase Enzyme Systems include human recombinant TAK1-TAB1 Kinase (TAK1 (1-303) and TAB1 (437-end)), Native Swine Myelin Basic Protein (MBP) substrate, 5×kinase reaction buffer, and DTT.
Test compounds were prepared in 1:5 serial dilutions at 8 concentrations in DMSO from 10 mM stock solutions. An additional 20-fold dilution in 1× kinase reaction buffer (see below) was performed, yielding a final dilution series in kinase buffer with 5% DMSO (final concentration in assay from 20 μM to 0.26 nM, 1% DMSO). As controls, Takinib was prepared as positive control (3 μM final in assay), and DMSO without inhibitor served as negative control, at a final assay concentration of DMSO of 1%.
One μl of compound solution in 5% DMSO was added to each well in a 384 well microtiter plate (OptiPlate #6007290). Two μl TAK1-TAB1 (7.5 ng/μl) in lxkinase reaction buffer ([…] Tris base pH 7.5, 20 mM MgCl2, 50 μM DTT, 0.1 mg/ml BSA) was added and pre-incubated 10 min before adding 2 μl of a mixture of MBP substrate and ATP (0.25 μg/μL MBP/25 μM ATP or 0.25 μg/μL MBP/2.5 mM ATP) in 1× kinase reaction buffer (as above). The plate was subsequently incubated at room temperature for 1 hour. Then 5 μl ADP-Glo™ reagent from ADP-Glo™ kit (as above) was added and incubated for 40 min to stop the reaction and consume remaining ATP. Ten μl kinase detection substrate (dissolved in kinase detection buffer, both from ADP-Glo™ kit as above) was then added to convert ADP to ATP and detect ATP with luciferase/luciferin. The plate was incubated for 30 minutes at room temperature in dark before reading luminescence on an Envision (PerkinElmer) reader.
IC50 values of compounds of the invention were determined by the non-linear regression analysis of dose response curves.

[1] = 10 μM ATP, read-out: TAK1 Mean IC50 (nM) @ 10 μM ATP
[2] = 1 mM ATP, read-out: TAK1 Mean IC50 (nM) @ 1 mM ATP

human recombinant TAK1-TAB1 Kinase (TAK1 (1-303) and TAB1 (437-end)), sequence (O43318 other isoform, or with tags, fused parts or gaps): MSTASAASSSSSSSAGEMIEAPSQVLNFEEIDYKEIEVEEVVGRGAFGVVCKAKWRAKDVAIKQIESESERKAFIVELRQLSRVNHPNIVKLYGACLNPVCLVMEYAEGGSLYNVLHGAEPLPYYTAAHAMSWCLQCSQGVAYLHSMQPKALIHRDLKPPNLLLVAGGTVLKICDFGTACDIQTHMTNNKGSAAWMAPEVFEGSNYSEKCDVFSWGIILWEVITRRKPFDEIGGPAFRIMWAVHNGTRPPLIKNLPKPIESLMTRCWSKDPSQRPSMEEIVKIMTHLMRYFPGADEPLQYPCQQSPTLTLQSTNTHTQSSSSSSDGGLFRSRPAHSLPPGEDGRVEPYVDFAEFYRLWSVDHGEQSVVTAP

Row | IC50 [1] | IC50 [2] | Structure (SMILES)
1 | 7 nM | – | CC1CCCCNC(=O)c2cccc(c2)C(=O)/N=C2\Nc3cccc(C(=O)N4CC5(COC5)C4)c3N21 (stereo not drawn) [Example 42, (E)-11-methyl-1^7-(2-oxa-6-azaspiro[3.3]heptane-6-carbonyl)-1^2,1^3-dihydro-1^1H-2,6-diaza-1(2,1)-benzo[d]imidazola-4(1,3)-benzenacycloundecaphane-3,5-dione]
2 | 136 nM | – | CC1CCCNC(=O)c2cccc(c2)C(=O)Nc2nc3cccc(C(=O)N(C)C)c3n2C1 (stereo not drawn) [Example 51, (E)-N,N,10-trimethyl-3,5-dioxo-1^2,1^3-dihydro-1^1H-2,6-diaza-1(2,1)-benzo[d]imidazola-4(1,3)-benzenacycloundecaphane-1^7-carboxamide]
3 | 63 nM | – | CC1CCCNC(=O)c2cccc(c2)C(=O)Nc2nc3cccc(C(=O)N(C)C)c3n2C1 (stereo not drawn) [Example 52, (E)-N,N,10-trimethyl-3,5-dioxo-1^2,1^3-dihydro-1^1H-2,6-diaza-1(2,1)-benzo[d]imidazola-4(1,3)-benzenacycloundecaphane-1^7-carboxamide]
4 | 6 nM | – | C[C@@H]1CCCCNC(=O)c2cccc(c2)C(=O)Nc2nc3cccc(-c4ncn(C)n4)c3n21 [Example 83, (R)-11-methyl-1^7-(1-methyl-1H-1,2,4-triazol-3-yl)-1^1H-2,6-diaza-1(2,1)-benzo[d]imidazola-4(1,3)-benzenacycloundecaphane-3,5-dione]
5 | 3 nM | – | C[C@@H]1CCCCNC(=O)c2cccc(c2)C(=O)Nc2nc3cccc(-c4ncnn4C)c3n21 [Example 85, (R,E)-11-methyl-1^7-(1-methyl-1H-1,2,4-triazol-5-yl)-1^1H-2,6-diaza-1(2,1)-benzo[d]imidazola-4(1,3)-benzenacycloundecaphane-3,5-dione]
6 | 6 nM | – | CC1CCCCNC(=O)c2cccc(c2)C(=O)Nc2nc3cccc(-c4nccn4C(F)F)c3n21 (stereo not drawn) [Example 90, (E)-1^7-(1-(difluoromethyl)-1H-imidazol-2-yl)-11-methyl-1^2,1^3-dihydro-1^1H-2,6-diaza-1(2,1)-benzo[d]imidazola-4(1,3)-benzenacycloundecaphane-3,5-dione]
7 | 5 nM | – | C[C@@H]1CCCCNC(=O)c2cccc(c2)C(=O)/N=C2\Nc3cccc(C(=O)N4CC(C)(O)C4)c3N21 [Example 94, (R,E)-1^7-(3-hydroxy-3-methylazetidine-1-carbonyl)-11-methyl-1^2,1^3-dihydro-1^1H-2,6-diaza-1(2,1)-benzo[d]imidazola-4(1,3)-benzenacycloundecaphane-3,5-dione]
8 | 6 nM | – | C[C@H]1CCCCNC(=O)c2cccc(c2)C(=O)/N=C2\Nc3cccc(C(=O)N4CC(C)(O)C4)c3N21 [Example 95, (S,E)-1^7-(3-hydroxy-3-methylazetidine-1-carbonyl)-11-methyl-1^2,1^3-dihydro-1^1H-2,6-diaza-1(2,1)-benzo[d]imidazola-4(1,3)-benzenacycloundecaphane-3,5-dione]
9 | 11 nM | 7 nM | Cc1nnc(-c2cccc3c2N2/C(=N/C(=O)c4cccc(c4)C(=O)NCCCC[C@@H]2C)N3)n1C [Example 96, (S,E)-1^7-(4,5-dimethyl-4H-1,2,4-triazol-3-yl)-11-methyl-1^2,1^3-dihydro-1^1H-2,6-diaza-1(2,1)-benzo[d]imidazola-4(1,3)-benzenacycloundecaphane-3,5-dione]
10 | 3 nM | – | CN1CCN(Cc2ccc3c(c2)N/C2=N\C(=O)c4ccc(F)c(c4)C(=O)NCCCCCN23)CC1 [Example 103, (E)-4^4-fluoro-1^5-((4-methylpiperazin-1-yl)methyl)-1^2,1^3-dihydro-1^1H-2,6-diaza-1(2,1)-benzo[d]imidazola-4(1,3)-benzenacycloundecaphane-3,5-dione]
11 | 4 nM | – | CN1CCN(Cc2ccc3c(c2)N/C2=N\C(=O)c4csc(c4)C(=O)NCCCCCN23)CC1 [Example 104, (1^2E,4^2Z)-1^5-((4-methylpiperazin-1-yl)methyl)-1^2,1^3-dihydro-1^1H-2,6-diaza-1(2,1)-benzo[d]imidazola-4(4,2)-thiophenacycloundecaphane-3,5-dione]
12 | 6 nM | – | CN1CCN(Cc2ccc3c(c2)N/C2=N\C(=O)c4cc(ccc4F)C(=O)NCCCCCN23)CC1 [Example 105, (E)-4^6-fluoro-1^5-((4-methylpiperazin-1-yl)methyl)-1^2,1^3-dihydro-1^1H-2,6-diaza-1(2,1)-benzo[d]imidazola-4(1,3)-benzenacycloundecaphane-3,5-dione]
13 | – | 6 nM | C[C@H]1CCCCNC(=O)c2cccc(c2)C(=O)/N=C2\Nc3cccc(C(=O)N4CC[C@@](C)(O)C4)c3N21 [Example 106, (S,E)-1^7-((R)-3-hydroxy-3-methylpyrrolidine-1-carbonyl)-11-methyl-1^2,1^3-dihydro-1^1H-2,6-diaza-1(2,1)-benzo[d]imidazola-4(1,3)-benzenacycloundecaphane-3,5-dione]
14 | – | 4 nM | C[C@H]1CCCCNC(=O)c2cccc(c2)C(=O)/N=C2\Nc3cccc(C(=O)N4CC(OC5CC5)C4)c3N21 [Example 107, (S,E)-1^7-(3-cyclopropoxyazetidine-1-carbonyl)-11-methyl-1^2,1^3-dihydro-1^1H-2,6-diaza-1(2,1)-benzo[d]imidazola-4(1,3)-benzenacycloundecaphane-3,5-dione]
15 | – | 26 nM | C[C@H]1CCCCNC(=O)c2cccc(c2)C(=O)/N=C2\Nc3cccc(C(=O)N4CC(OC(F)(F)F)C4)c3N21 [Example 110, (S,E)-11-methyl-1^7-(3-(trifluoromethoxy)azetidine-1-carbonyl)-1^2,1^3-dihydro-1^1H-2,6-diaza-1(2,1)-benzo[d]imidazola-4(1,3)-benzenacycloundecaphane-3,5-dione]
16 | – | 24 nM | C[C@H]1CCCCNC(=O)c2cccc(c2)C(=O)/N=C2\Nc3cccc(C(=O)N4C[C@@H]5C[C@H]4CO5)c3N21 [Example 111, (S,E)-1^7-((1S,4S)-2-oxa-5-azabicyclo[2.2.1]heptane-5-carbonyl)-11-methyl-1^2,1^3-dihydro-1^1H-2,6-diaza-1(2,1)-benzo[d]imidazola-4(1,3)-benzenacycloundecaphane-3,5-dione]
17 | – | 8 nM | C[C@H]1CCCCNC(=O)c2cccc(c2)C(=O)/N=C2\Nc3cccc(C(=O)N4C[C@H]5C[C@@H]4CO5)c3N21 [Example 112, (S,E)-1^7-((1R,4R)-2-oxa-5-azabicyclo[2.2.1]heptane-5-carbonyl)-11-methyl-1^2,1^3-dihydro-1^1H-2,6-diaza-1(2,1)-benzo[d]imidazola-4(1,3)-benzenacycloundecaphane-3,5-dione]
18 | 5 nM | 5 nM | C[C@H]1CCCCNC(=O)c2cccc(c2)C(=O)NC2Nc3cccc(N4CCCC4=O)c3N21 (stereo partly drawn) [Example 113, (S,E)-11-methyl-1^7-(2-oxopyrrolidin-1-yl)-1^2,1^3-dihydro-1^1H-2,6-diaza-1(2,1)-benzo[d]imidazola-4(1,3)-benzenacycloundecaphane-3,5-dione]
19 | – | 10 nM | C[C@H]1CCCCNC(=O)c2cccc(c2)C(=O)/N=C2\Nc3cccc(C(=O)N4CC5(COC5)C4)c3N21 [Example 114, (S,E)-11-methyl-1^7-(2-oxa-6-azaspiro[3.3]heptane-6-carbonyl)-1^2,1^3-dihydro-1^1H-2,6-diaza-1(2,1)-benzo[d]imidazola-4(1,3)-benzenacycloundecaphane-3,5-dione]
20 | – | 11 nM | C[C@H]1CCCCNC(=O)c2cccc(c2)C(=O)/N=C2\Nc3cccc(C(=O)N4CCC5(COC5)C4)c3N21 [Example 115, (S,E)-11-methyl-1^7-(2-oxa-6-azaspiro[3.4]octane-6-carbonyl)-1^2,1^3-dihydro-1^1H-2,6-diaza-1(2,1)-benzo[d]imidazola-4(1,3)-benzenacycloundecaphane-3,5-dione]
21 | – | 3 nM | C[C@H]1CCCCNC(=O)c2cccc(c2)C(=O)/N=C2\Nc3cccc(C(=O)N4CC5(CCCO5)C4)c3N21 [Example 116, (S,E)-11-methyl-1^7-(5-oxa-2-azaspiro[3.4]octane-2-carbonyl)-1^2,1^3-dihydro-1^1H-2,6-diaza-1(2,1)-benzo[d]imidazola-4(1,3)-benzenacycloundecaphane-3,5-dione]
22 | – | 4 nM | C[C@H]1CCCCNC(=O)c2cccc(c2)C(=O)/N=C2\Nc3cccc(C(=O)N4CC5(C4)CC(F)(F)CO5)c3N21 [Example 117, (S,E)-1^7-(7,7-difluoro-5-oxa-2-azaspiro[3.4]octane-2-carbonyl)-11-methyl-1^2,1^3-dihydro-1^1H-2,6-diaza-1(2,1)-benzo[d]imidazola-4(1,3)-benzenacycloundecaphane-3,5-dione]
